Source: the supplement of paper PMC10307832

Assays:
Experiment in all cases: relative viability (nuclei count vs DMSO), 5 days (fraction); higher = more cells survive
KIN001-266 + Trametinib = compound: CCN1CCC(CC1)N2C=C(N=N2)CNC3=CC4=C(C(=CN=C4C(=C3)Cl)C#N)NC5=CC(=C(C=C5)F)Cl [KIN001-266] + CC(=O)Nc1cccc(-n2c(=O)n(C3CC3)c(=O)c3c(Nc4ccc(I)cc4F)n(C)c(=O)c(C)c32)c1 [Trametinib] (partner 0.02 µM)
Outline: (§1)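 Medians of duplicate plates are given as relative viability. That measure is the nuclei count in treated wells divided by the count in vehicle wells. Counts were taken on 4× images of lung cancer cell lines in 1536-well plates, 5 days after pin-tool dosing the day after seeding with one drug alone or a fixed anchor-drug dose plus five library-drug doses (not always all listed) in √10 steps.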

KIN001-266 + OSI-027 = compound: CCN1CCC(CC1)N2C=C(N=N2)CNC3=CC4=C(C(=CN=C4C(=C3)Cl)C#N)NC5=CC(=C(C=C5)F)Cl [KIN001-266] + COc1cccc2cc(-c3nc([C@H]4CC[C@H](C(=O)O)CC4)n4ncnc(N)c34)[nH]c12 [OSI-027] (partner 0.5 µM)
Outline: as §1

KIN001-266 + Lapatinib = compound: CCN1CCC(CC1)N2C=C(N=N2)CNC3=CC4=C(C(=CN=C4C(=C3)Cl)C#N)NC5=CC(=C(C=C5)F)Cl [KIN001-266] + CS(=O)(=O)CCNCc1ccc(-c2ccc3ncnc(Nc4ccc(OCc5cccc(F)c5)c(Cl)c4)c3c2)o1 [Lapatinib] (partner 2 µM)
Outline: as §1

KIN001-266 + Linsitinib = compound: CCN1CCC(CC1)N2C=C(N=N2)CNC3=CC4=C(C(=CN=C4C(=C3)Cl)C#N)NC5=CC(=C(C=C5)F)Cl [KIN001-266] + C[C@]1(O)C[C@@H](c2nc(-c3ccc4ccc(-c5ccccc5)nc4c3)c3c(N)nccn32)C1 [Linsitinib] (partner 1 µM)
Outline: as §1

Cell Line	relative viability (KIN001-266 + Trametinib; first compound 0.08 µM)	relative viability (KIN001-266 + Trametinib; first compound 0.253 µM)	relative viability (KIN001-266 + Trametinib; first compound 0.8 µM)	relative viability (KIN001-266 + Trametinib; first compound 2.53 µM)	relative viability (KIN001-266 + Trametinib; first compound 8 µM)	relative viability (KIN001-266 + OSI-027; first compound 0.08 µM)	relative viability (KIN001-266 + OSI-027; first compound 0.253 µM)	relative viability (KIN001-266 + OSI-027; first compound 0.8 µM)	relative viability (KIN001-266 + OSI-027; first compound 2.53 µM)	relative viability (KIN001-266 + OSI-027; first compound 8 µM)	relative viability (KIN001-266 + Lapatinib; first compound 0.08 µM)	relative viability (KIN001-266 + Lapatinib; first compound 0.253 µM)	relative viability (KIN001-266 + Lapatinib; first compound 0.8 µM)	relative viability (KIN001-266 + Lapatinib; first compound 2.53 µM)	relative viability (KIN001-266 + Lapatinib; first compound 8 µM)	relative viability (KIN001-266 + Linsitinib; first compound 0.08 µM)	relative viability (KIN001-266 + Linsitinib; first compound 0.253 µM)	relative viability (KIN001-266 + Linsitinib; first compound 0.8 µM)	relative viability (KIN001-266 + Linsitinib; first compound 2.53 µM)	relative viability (KIN001-266 + Linsitinib; first compound 8 µM)
NCI-H2085	0.569	0.457	0.567	0.558	0.541	0.808	0.835	0.582	0.759	0.416	0.829	0.853	0.716	0.755	0.617	0.854	0.986	0.908	0.949	0.793
NCI-H2087	0.254	0.276	0.16	0.175	0.175	0.823	0.65	0.599	0.458	0.486	1.03	1.05	1.06	0.987	0.875	0.924	0.95	0.963	0.791	0.599
NCI-H2126	0.583	0.554	0.621	0.568	0.518	0.712	0.754	0.696	0.635	0.618	0.796	0.757	0.765	0.676	0.734	0.72	0.724	0.739	0.73	0.73
NCI-H2228	0.564	0.448	0.457	0.357	0.402	0.623	0.428	0.606	0.462	0.34	1.06	1.04	0.883	0.834	0.882	0.94	0.813	0.483	0.518	0.454
NCI-H2347	0.304	0.323	0.282	0.278	0.22	0.606	0.456	0.296	0.374	0.255	0.952	0.956	0.925	0.915	0.51	0.998	0.936	0.937	0.762	0.573
NCI-H2405	0.64	0.658	0.661	0.615	0.61	0.652	0.671	0.609	0.561	0.515	1.08	1.23	1.09	1.16	0.936	0.888	0.887	0.942	0.928	0.584
NCI-H3122	0.234	0.218	0.223	0.232	0.292	0.965	0.905	0.917	0.804	0.8	0.893	0.945	1.03	0.964	0.907	0.979	0.97	0.996	0.958	0.96
PC-3 [JPC-3]	0.785	0.739	0.554	0.741	0.607	0.764	0.776	0.688	0.755	0.751	0.451	0.447	0.422	0.414	0.499	0.99	0.934	0.941	0.958	0.896
PC-14	0.715	0.729	0.808	0.518	0.141	0.836	0.981	–	0.67	0.152	0.307	0.368	0.27	0.287	0.312	0.953	1.06	1.01	0.97	0.442
RERF-LC-KJ	0.945	0.849	0.823	0.778	0.556	0.645	0.614	0.519	0.498	0.351	0.871	0.828	0.817	0.857	0.781	0.947	0.857	0.917	0.846	0.656
SK-LU-1	0.518	0.451	0.437	0.369	0.429	0.358	0.307	0.403	0.346	0.26	0.932	0.862	0.817	0.64	0.613	1.29	0.937	1.14	1.07	0.639
SK-MES-1	0.564	0.562	0.551	0.522	0.47	0.694	0.676	0.575	0.573	0.474	0.47	0.522	0.414	0.405	0.418	1.17	1.08	1.01	1	0.902
SW 1573	0.575	0.493	0.603	0.557	0.464	0.778	0.627	0.616	0.515	0.513	1.09	1.13	1.11	0.88	1.04	0.844	0.8	0.72	0.732	0.619
UMC-11	0.741	0.711	0.718	0.506	0.774	0.426	0.485	0.511	0.455	0.367	1.08	1.04	1.13	0.848	0.79	0.944	1.01	1.08	0.981	1.09
